Assay results: patent US7012081B2, “Anthranyl amides and their use as medicaments” (Schering AG, priority 2000, dated 2006)

Legend:
[1] = biological target: VEGFR II (KDR) (Homo sapiens, UniProt P35968); experiment: Inhibition of the KDR kinase activity (33P-ATP / poly-(Glu4Tyr) phosphocellulose filter assay); format: biochemical; conditions: substrate poly-(Glu4Tyr), 10 minutes at room temperature
Experimental: • Stock solution A: 3 mmol of ATP in water, pH 7.0 (−70° C.) • Stock solution B: g-33P-ATP 1 mCi/100 μl • Stock solution C: poly-(Glu4 Tyr) 10 mg/ml in water Solution for Dilutions • Substrate solvent: 10 mmol of DTT, 10 mmol of manganese chloride, 100 mmol of magnesium chloride • Enzyme solution: 120 mmol of tris/HCl, pH 7.5, 10 μM of sodium vanadium oxide Sample Application 1 Inhibition of the KDR- and FLT-1 Kinase Activity in the Presence of the Compounds According to the Invention
In a microtiter plate (without protein binding) that tapers to a point, 10 μl of substrate mix (10 μl of volume of ATP stock solution A+25 μCi of g-33P-ATP (about 2.5 μl of stock solution B)+30 μl of poly-(Glu4Tyr) stock solution C+1.21 ml of substrate solvent), 10 μl of inhibitor solution (substances corresponding to the dilutions, 3% DMSO in substrate solvent as a control) and 10 μl of enzyme solution (11.25 μg of enzyme stock solution (KDR or FLT-1 kinase) are added at 4° C. in 1.25 ml of enzyme solution (dilute). It is thoroughly mixed and incubated for 10 minutes at room temperature. Then, 10 μl of stop solution (250 mmol of EDTA, pH 7.0) is added, mixed, and 10 μl of the solution is transferred to a P 81 phosphocellulose filter. Then, it is washed several times in 0.1 M phosphoric acid. The filter paper is dried, coated with Meltilex and measured in a microbeta counter. […]

VEGFR II (KDR), sequence (P35968 20-1356, species assumed): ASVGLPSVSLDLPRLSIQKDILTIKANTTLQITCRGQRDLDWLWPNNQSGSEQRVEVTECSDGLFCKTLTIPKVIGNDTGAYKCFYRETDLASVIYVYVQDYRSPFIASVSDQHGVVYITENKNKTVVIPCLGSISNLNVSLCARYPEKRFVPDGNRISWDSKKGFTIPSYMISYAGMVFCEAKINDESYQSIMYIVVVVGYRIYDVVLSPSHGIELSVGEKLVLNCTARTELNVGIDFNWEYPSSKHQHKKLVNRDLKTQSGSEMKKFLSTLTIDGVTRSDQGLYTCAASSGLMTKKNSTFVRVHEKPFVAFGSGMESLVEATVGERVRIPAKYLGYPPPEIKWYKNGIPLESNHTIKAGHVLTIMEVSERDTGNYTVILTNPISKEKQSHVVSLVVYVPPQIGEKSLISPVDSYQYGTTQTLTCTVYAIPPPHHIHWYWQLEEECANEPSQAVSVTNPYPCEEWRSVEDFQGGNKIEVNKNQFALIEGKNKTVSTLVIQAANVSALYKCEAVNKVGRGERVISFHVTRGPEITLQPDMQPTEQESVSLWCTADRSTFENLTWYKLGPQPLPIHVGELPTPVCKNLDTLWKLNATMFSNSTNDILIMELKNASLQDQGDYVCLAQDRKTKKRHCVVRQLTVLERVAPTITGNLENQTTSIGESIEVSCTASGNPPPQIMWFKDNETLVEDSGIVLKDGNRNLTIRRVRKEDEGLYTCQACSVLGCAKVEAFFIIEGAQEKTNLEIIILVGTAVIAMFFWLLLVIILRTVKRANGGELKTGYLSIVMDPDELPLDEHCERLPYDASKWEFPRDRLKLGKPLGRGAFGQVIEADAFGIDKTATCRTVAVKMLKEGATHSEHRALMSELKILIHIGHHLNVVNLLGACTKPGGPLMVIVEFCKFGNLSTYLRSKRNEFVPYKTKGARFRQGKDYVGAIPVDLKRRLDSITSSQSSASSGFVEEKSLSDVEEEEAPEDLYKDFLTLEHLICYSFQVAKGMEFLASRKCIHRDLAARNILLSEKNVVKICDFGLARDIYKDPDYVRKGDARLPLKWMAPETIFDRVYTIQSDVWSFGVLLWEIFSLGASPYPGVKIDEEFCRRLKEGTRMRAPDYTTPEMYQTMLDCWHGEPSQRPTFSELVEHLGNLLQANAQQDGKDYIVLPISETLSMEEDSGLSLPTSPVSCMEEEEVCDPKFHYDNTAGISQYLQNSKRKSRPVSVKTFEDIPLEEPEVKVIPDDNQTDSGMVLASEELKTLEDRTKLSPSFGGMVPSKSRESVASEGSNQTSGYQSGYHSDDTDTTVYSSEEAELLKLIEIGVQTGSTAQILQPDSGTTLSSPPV

SMILES	IC50 [1]	melting point
O=C1CCC(CNc2ccccc2C(=O)Nc2cc3ccccc3cn2)CC1 [Example 2.0]	20 nM	–
O=C(Nc1cc2ccccc2cn1)c1ccccc1NCC1CCOCC1 [Example 1.1]	50 nM	140.4 °C
